According to the NIST ThermoML archive (doi:10.1016/j.jct.2014.07.004):
± gives the expanded uncertainty stated by the source.

Conditions: Liquid, Closed cell (Static) method

With COC(=O)OC [dimethyl carbonate] the “vapor or sublimation pressure” value (277.96 K) was 2.298 ± 0.23 kPa, the “vapor or sublimation pressure” value (282.06 K) was 3.121 ± 0.32 kPa and the “vapor or sublimation pressure” value (286.15 K) was 4.019 ± 0.4 kPa. For the same compound, the “vapor or sublimation pressure” value (290.25 K) was 4.863 ± 0.49 kPa, the “vapor or sublimation pressure” value (294.35 K) was 6.311 ± 0.63 kPa and the “vapor or sublimation pressure” value (298.15 K) was 6.982 ± 0.7 kPa. The “vapor or sublimation pressure” value (302.54 K) was 9.72 ± 0.98 kPa, the “vapor or sublimation pressure” value (306.64 K) was 11.7 ± 1.2 kPa and the “vapor or sublimation pressure” value (310.74 K) was 14.02 ± 1.4 kPa. For the same compound, the “vapor or sublimation pressure” value (318.15 K) was 19.82 ± 2 kPa and the “vapor or sublimation pressure” value (323.15 K) was 23.07 ± 2.3 kPa.
For CCOC(=O)OC [ethyl methyl carbonate], the “vapor or sublimation pressure” value (277.96 K) was 0.958 ± 0.13 kPa, the “vapor or sublimation pressure” value (282.06 K) was 1.285 ± 0.13 kPa and the “vapor or sublimation pressure” value (283.15 K) was 1.516 ± 0.16 kPa. The “vapor or sublimation pressure” value (288.15 K) was 2.008 ± 0.2 kPa, the “vapor or sublimation pressure” value (293.15 K) was 2.439 ± 0.25 kPa and the “vapor or sublimation pressure” value (298.15 K) was 3.658 ± 0.37 kPa. The “vapor or sublimation pressure” value (303.15 K) was 4.534 ± 0.46 kPa, the “vapor or sublimation pressure” value (308.15 K) was 5.801 ± 0.58 kPa and the “vapor or sublimation pressure” value (310.74 K) was 6.739 ± 0.68 kPa. The “vapor or sublimation pressure” value (314.83 K) was 7.885 ± 0.79 kPa, the “vapor or sublimation pressure” value (323.15 K) was 12.28 ± 1.2 kPa and the “vapor or sublimation pressure” value (328.15 K) was 15.26 ± 1.5 kPa. For the same compound, the “vapor or sublimation pressure” value (333.15 K) was 18.28 ± 1.8 kPa.
In the case of CC1COC(=O)O1 (stereo not given) [4-methyl-1,3-dioxolan-2-one], the “vapor or sublimation pressure” value (327.12 K) is reported as 0.057 kPa, the “vapor or sublimation pressure” value (331.22 K) is reported as 0.078 ± 0.13 kPa and the “vapor or sublimation pressure” value (338.15 K) is reported as 0.123 ± 0.13 kPa. For the same compound, the “vapor or sublimation pressure” value (343.15 K) was 0.185 ± 0.13 kPa, the “vapor or sublimation pressure” value (348.15 K) was 0.221 ± 0.13 kPa and the “vapor or sublimation pressure” value (353.15 K) was 0.287 ± 0.13 kPa.
For O [water], the “vapor or sublimation pressure” value (277.96 K) was 0.961 ± 0.13 kPa, the “vapor or sublimation pressure” value (282.06 K) was 1.243 ± 0.13 kPa and the “vapor or sublimation pressure” value (286.15 K) was 1.442 ± 0.15 kPa. The “vapor or sublimation pressure” value (290.25 K) was 1.947 ± 0.2 kPa, the “vapor or sublimation pressure” value (294.35 K) was 2.537 ± 0.26 kPa and the “vapor or sublimation pressure” value (298.44 K) was 3.288 ± 0.33 kPa. The “vapor or sublimation pressure” value (302.54 K) was 4.068 ± 0.41 kPa, the “vapor or sublimation pressure” value (306.64 K) was 5.035 ± 0.51 kPa and the “vapor or sublimation pressure” value (310.74 K) was 7.056 ± 0.71 kPa. The “vapor or sublimation pressure” value (314.83 K) was 8.582 ± 0.86 kPa, the “vapor or sublimation pressure” value (318.93 K) was 9.702 ± 0.97 kPa and the “vapor or sublimation pressure” value (323.03 K) was 11.46 ± 1.2 kPa. The “vapor or sublimation pressure” value (327.12 K) was 15.18 ± 1.5 kPa.
For CCOC(=O)OCC [diethyl carbonate], the “vapor or sublimation pressure” value (277.96 K) was 0.401 ± 0.13 kPa, the “vapor or sublimation pressure” value (282.06 K) was 0.515 ± 0.13 kPa and the “vapor or sublimation pressure” value (286.15 K) was 0.666 ± 0.13 kPa. The “vapor or sublimation pressure” value (288.15 K) was 0.797 ± 0.13 kPa, the “vapor or sublimation pressure” value (293.15 K) was 1.031 ± 0.13 kPa and the “vapor or sublimation pressure” value (298.15 K) was 1.414 ± 0.14 kPa. For the same compound, the “vapor or sublimation pressure” value (303.15 K) was 1.844 ± 0.19 kPa, the “vapor or sublimation pressure” value (306.64 K) was 2.347 ± 0.24 kPa and the “vapor or sublimation pressure” value (310.74 K) was 3.012 ± 0.3 kPa. For the same compound, the “vapor or sublimation pressure” value (318.15 K) was 4.582 ± 0.46 kPa, the “vapor or sublimation pressure” value (323.15 K) was 6.172 ± 0.62 kPa and the “vapor or sublimation pressure” value (328.15 K) was 7.162 ± 0.72 kPa. For the same compound, the “vapor or sublimation pressure” value (333.15 K) was 9.088 ± 0.91 kPa, the “vapor or sublimation pressure” value (338.15 K) was 11.56 ± 1.2 kPa and the “vapor or sublimation pressure” value (343.15 K) was 13.78 ± 1.4 kPa. The “vapor or sublimation pressure” value (348.15 K) was 16.09 ± 1.6 kPa and the “vapor or sublimation pressure” value (353.15 K) was 20.83 ± 2.1 kPa.
For O=C1OCCO1 [ethylene carbonate], the “vapor or sublimation pressure” value (333.15 K) was 0.045 kPa, the “vapor or sublimation pressure” value (338.15 K) was 0.066 ± 0.13 kPa and the “vapor or sublimation pressure” value (343.15 K) was 0.087 ± 0.13 kPa. For the same compound, the “vapor or sublimation pressure” value (348.15 K) was 0.124 ± 0.13 kPa and the “vapor or sublimation pressure” value (353.15 K) was 0.175 ± 0.13 kPa.
